{"source": "patent US20260138970A1", "about": "“MODULATORS OF THE CALCIUM SIGNALING CASCADE” (FONDAZIONE TELETHON ETS, priority 2022, published 2026)", "type_in_all_cases": "cell-based", "key": {"ITPR2": {"target": "T1, ITPR2 (Homo sapiens, UniProt Q14571)", "T1 construct": "host or cells: HEKR2 (HEK293)", "T1 sequence (Q14571 whole entry)": "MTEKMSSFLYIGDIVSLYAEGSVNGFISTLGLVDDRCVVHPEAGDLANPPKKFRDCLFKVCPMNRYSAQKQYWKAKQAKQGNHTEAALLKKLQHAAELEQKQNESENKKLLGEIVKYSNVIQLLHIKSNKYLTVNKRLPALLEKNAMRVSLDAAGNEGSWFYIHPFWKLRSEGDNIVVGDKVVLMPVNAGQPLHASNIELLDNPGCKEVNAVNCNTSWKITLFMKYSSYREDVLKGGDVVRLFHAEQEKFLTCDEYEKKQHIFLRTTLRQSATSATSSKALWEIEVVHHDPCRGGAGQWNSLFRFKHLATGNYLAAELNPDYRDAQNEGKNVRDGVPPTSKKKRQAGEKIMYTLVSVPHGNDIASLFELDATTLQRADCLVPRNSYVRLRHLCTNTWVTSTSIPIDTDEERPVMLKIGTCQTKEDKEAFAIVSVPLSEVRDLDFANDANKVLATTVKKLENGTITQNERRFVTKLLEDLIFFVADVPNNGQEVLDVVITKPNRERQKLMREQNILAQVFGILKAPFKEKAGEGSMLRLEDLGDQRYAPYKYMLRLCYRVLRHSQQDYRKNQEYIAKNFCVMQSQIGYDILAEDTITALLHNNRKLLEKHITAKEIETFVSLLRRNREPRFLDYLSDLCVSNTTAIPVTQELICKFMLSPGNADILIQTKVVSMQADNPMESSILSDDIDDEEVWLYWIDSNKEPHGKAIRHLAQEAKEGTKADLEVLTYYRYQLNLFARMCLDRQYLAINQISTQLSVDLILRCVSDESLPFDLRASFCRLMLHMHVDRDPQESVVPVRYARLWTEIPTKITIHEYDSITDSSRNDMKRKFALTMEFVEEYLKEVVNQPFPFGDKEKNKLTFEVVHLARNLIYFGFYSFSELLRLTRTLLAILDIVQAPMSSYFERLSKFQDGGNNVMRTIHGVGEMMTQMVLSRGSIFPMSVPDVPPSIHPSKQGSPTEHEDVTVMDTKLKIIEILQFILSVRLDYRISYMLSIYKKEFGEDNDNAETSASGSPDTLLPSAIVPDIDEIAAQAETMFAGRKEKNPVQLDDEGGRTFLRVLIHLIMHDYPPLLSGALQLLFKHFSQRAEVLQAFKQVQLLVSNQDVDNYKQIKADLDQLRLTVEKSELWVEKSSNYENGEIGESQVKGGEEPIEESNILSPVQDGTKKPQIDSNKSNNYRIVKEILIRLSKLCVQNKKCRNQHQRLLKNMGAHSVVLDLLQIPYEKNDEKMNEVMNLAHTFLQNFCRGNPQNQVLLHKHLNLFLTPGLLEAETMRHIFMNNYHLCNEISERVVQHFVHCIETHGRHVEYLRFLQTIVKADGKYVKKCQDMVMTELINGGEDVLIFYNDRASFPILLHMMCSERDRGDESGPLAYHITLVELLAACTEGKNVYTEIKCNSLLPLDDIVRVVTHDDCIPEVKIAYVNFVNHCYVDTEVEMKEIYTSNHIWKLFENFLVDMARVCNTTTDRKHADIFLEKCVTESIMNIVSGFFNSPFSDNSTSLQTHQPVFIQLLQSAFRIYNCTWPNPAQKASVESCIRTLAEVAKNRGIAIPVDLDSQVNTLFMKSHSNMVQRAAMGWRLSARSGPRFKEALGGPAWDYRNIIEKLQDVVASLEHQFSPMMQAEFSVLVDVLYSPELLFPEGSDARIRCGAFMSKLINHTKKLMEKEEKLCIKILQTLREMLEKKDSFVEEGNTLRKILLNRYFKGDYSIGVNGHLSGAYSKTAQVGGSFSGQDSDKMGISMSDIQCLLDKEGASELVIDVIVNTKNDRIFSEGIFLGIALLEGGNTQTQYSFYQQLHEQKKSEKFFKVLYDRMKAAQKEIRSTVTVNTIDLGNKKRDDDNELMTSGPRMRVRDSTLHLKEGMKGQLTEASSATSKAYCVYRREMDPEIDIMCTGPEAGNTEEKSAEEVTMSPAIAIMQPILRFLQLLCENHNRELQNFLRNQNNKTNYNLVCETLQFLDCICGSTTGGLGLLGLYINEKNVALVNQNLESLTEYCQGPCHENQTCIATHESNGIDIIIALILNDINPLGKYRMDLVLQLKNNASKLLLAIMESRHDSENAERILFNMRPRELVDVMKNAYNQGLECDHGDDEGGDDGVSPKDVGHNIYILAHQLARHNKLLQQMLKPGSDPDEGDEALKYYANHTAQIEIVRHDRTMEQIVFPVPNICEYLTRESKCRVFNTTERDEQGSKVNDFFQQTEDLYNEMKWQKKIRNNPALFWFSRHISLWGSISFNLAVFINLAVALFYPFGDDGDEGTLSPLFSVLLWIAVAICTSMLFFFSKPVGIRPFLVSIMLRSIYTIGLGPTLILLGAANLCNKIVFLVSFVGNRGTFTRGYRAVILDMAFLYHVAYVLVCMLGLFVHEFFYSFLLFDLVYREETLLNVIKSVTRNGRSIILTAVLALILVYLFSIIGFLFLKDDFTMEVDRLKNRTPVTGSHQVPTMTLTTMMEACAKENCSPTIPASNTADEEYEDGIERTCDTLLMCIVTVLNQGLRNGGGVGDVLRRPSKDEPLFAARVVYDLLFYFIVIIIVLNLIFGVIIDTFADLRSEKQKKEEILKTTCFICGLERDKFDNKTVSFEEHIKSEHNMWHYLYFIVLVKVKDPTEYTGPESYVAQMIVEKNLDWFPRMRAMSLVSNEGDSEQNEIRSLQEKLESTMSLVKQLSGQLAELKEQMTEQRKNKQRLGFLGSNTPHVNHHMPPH", "test": "Fluo-4 Ca2+ assay, UTP, HEK293 cells with selective expression of ITPR2 (HEKR2)", "conditions": "compounds 10 μM; UTP 1 μM; FIG. 2C", "method": "(§1) HEK293 cells totally devoid of ITPR expression (HEK3XKO) or with selective expression of ITPR1 (HEKR1), ITPR2 (HEKR2), or ITPR3 (HEKR3), obtained by selective gene ablation, were purchased from Kerafast (catalog number: EURO30, EURO31, EURO32, EURO33) and cultured in a mixture of Dulbecco's Modified Eagle Medium (DMEM, high glucose version) and Ham's F12 (1:1) and supplemented with 10% fetal bovine serum, 2 mM L-glutamine, 100 U/ml penicillin and 100 μg/ml streptomycin.\n(§2) Experiments were performed using the microplate reader described for the HS-YFP assay. FRT and HEK293 cells were cultured until confluence in 96-well microplates (3603, Corning). Cells were washed 2 times with PBS (150 μl/wash) and then loaded for 1 h at 37° C. with 5 μM Fluo-4/AM (Thermo Fisher Scientific; catalog number: F23917) in PBS containing 10 mM glucose, 0.5 mM sulfinpyrazone, and 1% fetal bovine serum. After loading, cells were washed 2 times with PBS-glucose-sulfinpyrazone (150 μl/wash) and incubated for 20 min at 37° C. with 60 μl of PBS plus 10 mM glucose and 0.5 mM sulfinpyrazone containing compounds of interest at 10 μM final concentration or vehicle. Each well was assayed individually. Fluo-4 fluorescence (500 nm excitation, 535 nm emission) was detected every 200 ms for 16-40 s. Two seconds after the start of fluorescence recording, the reader automatically injected 165 μl of a modified PBS containing 136 mM KCl instead of NaCl. This solution also contained 10 mM glucose, 0.5 mM sulfinpyrazone, and UTP or SLIGR-NH2 (CAS #171436-38-7) at a final concentration that depended on the specific cell type. For UTP we used: 0.25 μM for FRT; 1 μM for HEKR2; 5 μM for HEK3XKO, HEKR1, and HEKR3. For SLIGR-NH2 we used: 10 μM for HEKR1; 4 μM for HEKR2. These concentrations were chosen to elicit ˜20% of maximal effect based on UTP and SLIGR-NH2 dose-response relationships. […] The Fluo-4 fluorescence increase was quantified using a procedure compiled in Microsoft Excel after background subtraction and normalization for the initial value measured before UTP addition."}, "ITPR": {"tested_on": "ITPR", "test": "ci-IP3/PM uncaging Ca2+ imaging assay in FRT cells", "conditions": "compounds 10 μM; FIG. 4", "method": "FRT and HEK293 cells were cultured in μ-Plate96 microplates (Ibidi) at subconfluent condition. Cells were washed 2 times with PBS (150 μl/wash) and then loaded for 45 min at 37° C. with 1 μM ci-IP3/PM (Tocris; catalog number: 6210/10U) and 5 μM Fluo-4/AM (Thermo Fisher Scientific) in PBS containing 10 mM glucose, 0.5 mM sulfinpyrazone and 1% fetal bovine serum. After 45 min, cells were further incubated for 1 h at 37° C. with a fresh PBS solution containing Fluo-4/AM, glucose, sulfinpyrazone, serum, but no ci-IP3/PM. After the second loading, cells were washed 2 times with PBS-glucose-sulfinpyrazone (150 μl/wash) and incubated for 20 min at 37° C. with 125 μl of PBS plus 10 mM glucose and 0.5 mM sulfinpyrazone containing compounds of interest at 10 μM final concentration or vehicle. Each well was assayed individually using an inverted Olympus microscope equipped with 40×oil immersion objective, 530 nm emission filter, Lambda DG4 (Sutter Instrument Co., Novato, CA, USA) illumination system with a 490 nm excitation filter, (Olympus, Segrate, Italy), Prime cmos camera (Photometrics, Tucson, AZ, USA) and MetaFluor imaging acquisition software (Molecular Devices, Sunnyvale, CA, USA). Time-lapse experiments were carried out with 50 ms exposure time, 0.5 s interval and 1.8 min total duration. […] Analysis was performed with MetaFluor software, by quantifying Fluo-4 fluorescence in manually selected single cell region of interest (ROI). Eight cells were selected in each field to generate an average trace. After background subtraction, fluorescence traces were normalized for the initial value."}, "ITPR1": {"target": "ITPR1 (Homo sapiens, UniProt Q14643)", "test": "Fluo-4 Ca2+ assay, UTP, HEK293 cells with selective expression of ITPR1 (HEKR1)", "parameters": "host or cells: HEKR1 (HEK293)", "conditions": "compounds 10 μM; UTP 5 μM; FIG. 2C", "method": "as §1, §2"}}, "data": [{"compound": "OCc1ccccc1CN(Cc1ccnc(N2CCCC2)n1)c1ccc(F)cc1", "note": "[ARN4550, [2-[[4-Fluoro-N-[(2-pyrrolidin-1-ylpyrimidin-4-yl)methyl]anilino]methyl]phenyl]methanol]", "values": [{"measurement": "potentiation of UTP-elicited Ca2+ increase, ITPR2-only cells", "setting": "ITPR2", "result": "always effective"}, {"measurement": "activity on Ca2+ mobilization by IP3 uncaging, FRT cells", "setting": "ITPR", "result": "inactive"}, {"measurement": "potentiation of UTP-elicited Ca2+ increase, ITPR1-only cells", "setting": "ITPR1", "result": "always effective"}]}, {"compound": "CCc1cc(-c2cc(NCCCOc3ccccc3C)nc(N)n2)n(C)n1", "note": "[ARN7149, 6-(3-Ethyl-1-methyl-1H-pyrazol-5-yl)-N^4-(3-(o-tolyloxy)propyl)pyrimidine-2,4-diamine]", "values": [{"measurement": "potentiation of UTP-elicited Ca2+ increase, ITPR2-only cells", "setting": "ITPR2", "result": "always effective"}, {"measurement": "activity on Ca2+ mobilization by IP3 uncaging, FRT cells", "setting": "ITPR", "result": "inactive"}, {"measurement": "potentiation of UTP-elicited Ca2+ increase, ITPR1-only cells", "setting": "ITPR1", "result": "always effective"}]}, {"compound": "CCn1nc2c(c1C(=O)Nc1ccccc1OCC1CCCCO1)CCCC2", "note": "(stereo not drawn) [ARN11391, 2-Ethyl-N-[2-(tetrahydropyran-2-ylmethoxy)phenyl]-4,5,6,7-tetrahydroindazole-3-carboxamide]", "values": [{"measurement": "potentiation of UTP-elicited Ca2+ increase, ITPR2-only cells", "setting": "ITPR2", "result": "only effective in cells with ITPR1"}, {"measurement": "activity on Ca2+ mobilization by IP3 uncaging, FRT cells", "setting": "ITPR", "result": "showed activity"}, {"measurement": "potentiation of UTP-elicited Ca2+ increase, ITPR1-only cells", "setting": "ITPR1", "result": "effective"}]}]}
